Results as given in BigSolDB 2.1.

| solubility (mole fraction) (in n-hexane, 293.15 K) | solubility (mole fraction) (in n-hexane, 298.15 K) | solubility (mole fraction) (in n-hexane, 303.15 K) | solubility (mole fraction) (in n-hexane, 308.15 K) | solubility (mole fraction) (in n-hexane, 313.15 K) | solubility (mole fraction) (in n-octanol, 293.15 K) | solubility (mole fraction) (in n-octanol, 298.15 K) | solubility (mole fraction) (in n-octanol, 303.15 K) | solubility (mole fraction) (in n-octanol, 308.15 K) | solubility (mole fraction) (in n-octanol, 313.15 K) | Compound |
| --- | --- | --- | --- | --- | --- | --- | --- | --- | --- | --- |
| 2.97e-06 | 3.73e-06 | 4.47e-06 | 5.47e-06 | 6.67e-06 | 0.00347 | 0.00431 | 0.00516 | 0.0062 | 0.00744 | NC(=S)c1ccncc1 |
| 0.000199 | 0.000248 | 0.000325 | 0.000404 | 0.000518 | 0.00952 | 0.012 | 0.0147 | 0.0183 | 0.0222 | NC(=S)c1ccccn1 |
| 1.84e-05 | 2.22e-05 | 2.73e-05 | 3.2e-05 | 3.88e-05 | 0.00674 | 0.00868 | 0.0108 | 0.0133 | 0.016 | CCc1cc(C(N)=S)ccn1 |
